Assays:
[1] = tested on: bluegrass; assay: Test D preemergence; type: in vivo, Poa annua; settings: scale 0 to 100
Text: (§1) Seeds of plant species selected from bluegrass (annual bluegrass, Poa annua), blackgrass (Alopecurus myosuroides), canarygrass (littleseed canarygrass, Phalaris minor), chickweed (common chickweed, Stellaria media), galium (catchweed bedstraw, Galium aparine), bromegrass, downy (downy bromegrass, Bromus tectorum), field poppy (Papaver rhoeas), field violet (Viola arvensis), foxtail, green (green foxtail, Setaria viridis), deadnettle (henbit deadnettle, Lamium amplexicaule), ryegrass, Italian (Italian ryegrass, Lolium multiflorum), kochia (Kochia scoparia), lambsquarters (Chenopodium album), oilseed rape (Brassica napus), pigweed (redroot pigweed, Amaranthus retroflexus), chamomile (scentless chamomile, Matricaria inodora), speedwell (bird's-eye speedwell, Veronica persica), barley, spring (spring barley, Hordeum vulgare), wheat, spring (spring wheat, Triticum aestivum), buckwheat, wild (wild buckwheat, Polygonum convolvulus), mustard, wild (wild mustard, Sinapis arvensis), oat, wild (wild oat, Avena fatua), radish, wild (wild radish, Raphanus raphanistrum), windgrass (Apera spica-venti), Russian thistle (Salsola kali), barley, winter (winter barley, Hordeum vulgare), and wheat, winter (winter wheat, Triticum aestivum) were planted into a silt loam soil and treated preemergence with test chemicals formulated in a non-phytotoxic solvent mixture which included a surfactant.
(§2) At the same time, these species were planted in pots containing Redi-Earth® planting medium (Scotts Company, 14111 Scottslawn Road, Marysville, Ohio 43041) comprising spaghnum peat moss, vermiculite, wetting agent and starter nutrients and treated with postemergence applications of the test chemicals formulated in the same manner. Plants ranged in height from 2 to 18 cm (1- to 4-leaf stage). Treated plants and controls were maintained in a controlled growth environment for 14 to 21 days after which time all species were compared to controls and visually evaluated. Plant response ratings, summarized in Table D, are based on a scale of 0 to 100 where 0 is no effect and 100 is complete control. A dash (-) response means no test result.

[2] = tested on: blackgrass; assay: Test D preemergence; type: in vivo, Alopecurus myosuroides; settings: scale 0 to 100
Text: as §1, §2

[3] = tested on: canarygrass; assay: Test D preemergence; type: in vivo, Phalaris minor; settings: scale 0 to 100
In short: (§3)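 Preemergence: seeds sown in silt loam and sprayed with compounds in a non-phytotoxic solvent with surfactant; postemergence: plants at 2 to 18 cm (1- to 4-leaf stage) in peat-based medium treated likewise. After 14 to 21 days in controlled growth conditions, injury rated visually versus controls on 0 (no effect) to 100 (complete control) scale.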

[4] = tested on: deadnettle; assay: Test D preemergence; type: in vivo, Lamium amplexicaule; settings: scale 0 to 100
In short: as §3

[5] = tested on: buckwheat, wild; assay: Test D postemergence; type: in vivo, Polygonum convolvulus; settings: scale 0 to 100
Text: as §1, §2

[6] = tested on: ragweed; assay: Test E preemergence; type: in vivo, Ambrosia elation; settings: 21 days, scale 0 to 100
Text: Seeds of plant species selected from bermudagrass (Cynodon dactylon), Surinam grass (Brachiaria decumbens), crabgrass, large (large crabgrass, Digitaria sanguinalis), crabgrass, naked (naked crabgrass, Digitaria nuda), foxtail, green (green foxtail, Setaria viridis), johnsongrass (Sorghum halepense), kochia (Kochia scoparia), morningglory (pitted morningglory, Ipomoea lacunosa), nutsedge, purple (purple nutsedge, Cyperus rotundus), ragweed (common ragweed, Ambrosia elation), mustard, black (black mustard, Brassica nigra), guineagrass (Panicum maximum), dallisgrass (Paspalum dilatatum), barnyardgrass (Echinochloa crus-galli), sandbur (southern sandbur, Cenchrus echinatus), sowthistle (common sowthistle, Sonchus oleraceous), ryegrass, Italian (Italian ryegrass, Lolium multiflorum), signalgrass (broadleaf signalgrass, Brachiaria platyphylla), dayflower, VA (Virginia (VA) dayflower, Commelina virginica), bluegrass (annual bluegrass, Poa annua), quackgrass (Elytrigia repens), mallow (common mallow, Malva sylvestris), buckwheat, wild (wild buckwheat, Polygonum convolvulus), leafy spurge (Euphorbia esula), common chickweed (Stellaria media), wild poinsettia (Euphorbia heterophylla), pigweed, palmer (palmer pigweed, Amaranthus palmeri), and pigweed (redroot pigweed, Amaranthus retroflexus) were planted into a blend of loam soil and sand and treated preemergence with test chemicals formulated in a non-phytotoxic solvent mixture which included a surfactant.
Treated plants and controls were maintained in a greenhouse for 21 days, after which time all species were compared to controls and visually evaluated. Plant response ratings, summarized in Table E, are based on a scale of 0 to 100 where 0 is no effect and 100 is complete control. A dash (-) response means no test result.

[7] = tested on: Surinam grass; assay: Test F preemergence; type: in vivo, Brachiaria decumbens
Text: (§4) Seeds of plant species selected from corn (Zea mays), soybean (Glycine max), velvetleaf (Abutilon theophrasti), lambsquarters (Chenopodium album), wild poinsettia (Euphorbia heterophylla), pigweed, palmer (palmer pigweed, Amaranthus palmeri), common waterhemp (Amaranthus rudis), surinam grass (Brachiaria decumbens), large crabgrass (Digitaria sanguinalis), crabgrass, Brazil (Brazilian crabgrass, Digitaria horizontalis), fall panicum (Panicum dichotomiflorum), giant foxtail (Setaria faberii), green foxtail (Setaria viridis), goosegrass (Eleusine indica), johnsongrass (Sorghum halepense), common ragweed (Ambrosia elation), barnyardgrass (Echinochloa crus-galli), southern sandbur (Cenchrus echinatus), arrowleaf sida (Sida rhombifolia), Italian ryegrass (Lolium multiflorum), dayflower, VA (Virginia (VA) dayflower, Commelina virginica), field bindweed (Convolvulus arvensis), cocklebur (common cocklebur, Xanthium strumarium), morningglory (Ipomoea coccinea), nightshade (eastern black nightshade, Solanum ptycanthum), kochia (Kochia scoparia), yellow nutsedge (Cyperus esculentus), and hairy beggarticks (Bidens pilosa), were planted into a silt loam soil and treated preemergence with test chemicals formulated in a non-phytotoxic solvent mixture which included a surfactant.
(§5) At the same time, plants from these crop and weed species and also horseweed (Canada horseweed, Conyza canadensis), smartweed (ladysthumb smartweed, Polygonum persicaria), waterhemp_RES1, (ALS & Triazine resistant common waterhemp, Amaranthus rudis), and waterhemp_RES2, (ALS & HPPD resistant common waterhemp, Amaranthus rudis) were treated with postemergence applications of test chemicals formulated in the same manner. Plants ranged in height from 2 to 18 cm for postemergence treatments (1- to 4-leaf stage). Treated plants and controls were maintained in a greenhouse for 14 to 21 days, after which time all species were compared to controls and visually evaluated. Plant response ratings, summarized in Table F, are based on a scale of 0 to 100 where 0 is no effect and 100 is complete control. A dash (-) response means no test result.

[8] = tested on: kochia; assay: Test F preemergence; type: in vivo, Kochia scoparia
Text: as §4, §5

[9] = Preemergence, 31 g ai/ha, scale 0 to 100
[10] = Preemergence, 62 g ai/ha, scale 0 to 100
[11] = Preemergence, 125 g ai/ha, scale 0 to 100
[12] = preemergence, 8 g ai/ha, scale 0 to 100, 100 is complete control
[13] = preemergence, 16 g ai/ha, scale 0 to 100, 100 is complete control

| SMILES | Plant response rating, Bluegrass ([1]; 31 g ai/ha) | Plant response rating, Bluegrass ([1]; 62 g ai/ha) | Plant response rating, Bluegrass ([1]; 125 g ai/ha) | Plant response rating, Bluegrass ([1]; 250 g ai/ha) | Plant response rating, Blackgrass ([2]; 31 g ai/ha) | Plant response rating, Blackgrass ([2]; 62 g ai/ha) | Plant response rating, Blackgrass ([2]; 125 g ai/ha) | Plant response rating, Blackgrass ([2]; 250 g ai/ha) | Plant response rating, Canarygrass ([3]; 31 g ai/ha) | Plant response rating, Canarygrass ([3]; 62 g ai/ha) | Plant response rating, Canarygrass ([3]; 125 g ai/ha) | Plant response rating, Canarygrass ([3]; 250 g ai/ha) | Plant response rating, Deadnettle ([4]; 31 g ai/ha) | Plant response rating, Deadnettle ([4]; 125 g ai/ha) | Plant response rating, Deadnettle ([4]; 250 g ai/ha) | Buckwheat, Wild plant response rating ([5]; Postemergence, 31 g ai/ha) | Buckwheat, Wild plant response rating ([5]; Postemergence, 125 g ai/ha) | Buckwheat, Wild plant response rating ([5]; Postemergence, 250 g ai/ha) | Buckwheat, Wild plant response rating ([5]; postemergence, 62 g ai/ha) | Plant response rating, Ragweed ([6]; 16 g ai/ha) | other results |
| --- | --- | --- | --- | --- | --- | --- | --- | --- | --- | --- | --- | --- | --- | --- | --- | --- | --- | --- | --- | --- | --- |
| CCc1cc(C(=O)NCC(F)(F)F)nn1Cc1ccnc(C(F)(F)F)c1 [Compound 78, 5-ethyl-N-(2,2,2-trifluoroethyl)-1-[[(2-trifluoromethyl)-4-pyridinyl]methyl]-1H-pyrazole-3-carboxamide] | 50 | 80 | 95 | 100 | 35 | 70 | 80 | 100 | 15 | 30 | 90 | 100 | 10 | 25 | 100 | 50 | 65 | 70 | 60 | 75 | Plant response rating, Deadnettle ([4]; 62 g ai/ha): 10; Plant response rating, Ragweed ([6]; 31 g ai/ha): 100; Plant response rating, Ragweed ([6]; 62 g ai/ha): 100; Plant response rating, Ragweed ([6]; 125 g ai/ha): 100; Plant response rating, Ragweed ([6]; 250 g ai/ha): 100; Plant response rating, Surinam Grass [7, 9]: 50; Plant response rating, Surinam Grass [7, 10]: 75; Plant response rating, Surinam Grass [7, 11]: 100; Plant response rating, Surinam Grass [7, 12]: 20; Plant response rating, Surinam Grass [7, 13]: 20; Plant response rating, Kochia [8, 9]: 100; Plant response rating, Kochia [8, 10]: 100; Plant response rating, Kochia [8, 11]: 100; Plant response rating, Kochia [8, 12]: 40; Plant response rating, Kochia [8, 13]: 65 |
| CCCc1cc(C(=O)NCC(F)(F)F)nn1Cc1ccnc(C(F)(F)F)c1 [Compound 105] | 55 | 80 | 100 | 100 | 25 | 80 | 100 | 100 | 15 | 60 | 100 | 100 | 5 | 20 | 35 | 55 | 70 | 80 | 65 | 70 | Plant response rating, Ragweed ([6]; 31 g ai/ha): 100; Plant response rating, Ragweed ([6]; 62 g ai/ha): 100; Plant response rating, Ragweed ([6]; 125 g ai/ha): 100; Plant response rating, Ragweed ([6]; 250 g ai/ha): 100; Plant response rating, Surinam Grass [7, 9]: 10; Plant response rating, Surinam Grass [7, 10]: 35; Plant response rating, Surinam Grass [7, 11]: 40; Plant response rating, Surinam Grass [7, 12]: 0; Plant response rating, Surinam Grass [7, 13]: 10; Plant response rating, Kochia [8, 9]: 100; Plant response rating, Kochia [8, 10]: 100; Plant response rating, Kochia [8, 11]: 100; Plant response rating, Kochia [8, 12]: 0; Plant response rating, Kochia [8, 13]: 80 |
| CCOc1cc(C(=O)NC2CC2)nn1Cc1ccnc(C(F)(F)F)c1 [Compound 189] | 15 | 50 | 70 | 85 | 35 | 60 | 80 | 100 | 10 | 50 | 85 | 100 | 90 | 100 | 100 | 70 | 70 | 80 | 70 | 100 | Plant response rating, Deadnettle ([4]; 62 g ai/ha): 100; Plant response rating, Ragweed ([6]; 8 g ai/ha): 95; Plant response rating, Ragweed ([6]; 31 g ai/ha): 100; Plant response rating, Ragweed ([6]; 62 g ai/ha): 100 |
